Test results from ChEMBL document CHEMBL3784929, “Pharmacokinetics of valproic acid in volunteers after a single dose study” (Biopharm Drug Dispos, 1985).

Tests used:
Assay type in all cases: ADME, organism-based
Serum [1] = test: Unbound serum concentration in healthy human (6 volunteers) at 1 g, po administered as single dose measured after 1 hr by enzyme multiple immunotechnique; conditions: in vivo
Serum [2] = test: Unbound serum concentration in healthy human (6 volunteers) at 1 g, po administered as single dose measured after 24 hrs by enzyme multiple immunotechnique; conditions: in vivo
Serum [3] = test: Unbound serum concentration in healthy human (6 volunteers) at 1 g, po administered as single dose measured after 4 hrs by enzyme multiple immunotechnique; conditions: in vivo
Serum [4] = test: Unbound serum concentration in healthy human (6 volunteers) at 1 g, po administered as single dose measured after 8 hrs by enzyme multiple immunotechnique; conditions: in vivo
[5] = Total serum concentration in healthy human (6 volunteers) at 1 g, po administered as single dose measured after 8 hrs by gas liquid chromatography; conditions: read-out: Drug uptake
[6] = Total serum concentration in healthy human (6 volunteers) at 1 g, po administered as single dose measured after 6 hrs by gas liquid chromatography; conditions: read-out: Drug uptake
[7] = Fraction unbound in healthy human (6 volunteers) serum assessed as ratio of fAUC to total AUC at 1 g, po administered as single dose by gas liquid chromatography
[8] = Total AUC in healthy human (6 volunteers) at 1 g, po administered as single dose by gas liquid chromatography; set-up: dose 1 g, time AUCmax, route oral; conditions: in vivo
[9] = Fraction unbound in healthy human (6 volunteers) serum at 1 g, po administered as single dose measured after 1.5 hrs
Serum [10] = test: Unbound serum concentration in healthy human (6 volunteers) at 1 g, po administered as single dose measured after 2 hrs by enzyme multiple immunotechnique; conditions: in vivo
[11] = Drug metabolism in healthy human (6 volunteers) assessed as excretion of valproic acid glucuronide in urine at 1 g, po administered as single dose measured upto 48 hrs by gas liquid chromatography; conditions: in vivo
Serum [12] = test: Unbound serum concentration in healthy human (6 volunteers) at 1 g, po administered as single dose measured after 14 hrs by enzyme multiple immunotechnique; conditions: in vivo
[13] = Fraction unbound in healthy human (6 volunteers) serum at 1 g, po administered as single dose measured after 2 hrs
Serum [14] = test: Unbound serum concentration in healthy human (6 volunteers) at 1 g, po administered as single dose measured after 48 hrs by enzyme multiple immunotechnique; conditions: in vivo
Serum [15] = test: Unbound serum concentration in healthy human (6 volunteers) at 1 g, po administered as single dose measured after 30 hrs by enzyme multiple immunotechnique; conditions: in vivo
[16] = Total serum concentration in healthy human (6 volunteers) at 1 g, po administered as single dose measured after 1.5 hrs by gas liquid chromatography; conditions: read-out: Drug uptake
[17] = Total serum concentration in healthy human (6 volunteers) at 1 g, po administered as single dose measured after 1 hr by gas liquid chromatography; conditions: read-out: Drug uptake
Serum [18] = test: Unbound serum concentration in healthy human (6 volunteers) at 1 g, po administered as single dose measured after 5 hrs by enzyme multiple immunotechnique; conditions: in vivo
Serum [19] = test: Unbound serum concentration in healthy human (6 volunteers) at 1 g, po administered as single dose measured after 6 hrs by enzyme multiple immunotechnique; conditions: in vivo
Homo sapiens = test: fAUC in healthy human (6 volunteers) at 1 g, po administered as single dose by gas liquid chromatography; conditions: in vivo
[20] = Total serum concentration in healthy human (6 volunteers) at 1 g, po administered as single dose measured after 12 hrs by gas liquid chromatography; conditions: read-out: Drug uptake
[21] = Total serum concentration in healthy human (6 volunteers) at 1 g, po administered as single dose measured after 2 hrs by gas liquid chromatography; conditions: read-out: Drug uptake
Serum [22] = test: Unbound serum concentration in healthy human (6 volunteers) at 1 g, po administered as single dose measured after 10 hrs by enzyme multiple immunotechnique; conditions: in vivo
[23] = Total serum concentration in healthy human (6 volunteers) at 1 g, po administered as single dose measured after 14 hrs by gas liquid chromatography; conditions: read-out: Drug uptake
[24] = Total serum concentration in healthy human (6 volunteers) at 1 g, po administered as single dose measured after 30 hrs by gas liquid chromatography; conditions: read-out: Drug uptake
Serum [25] = test: Unbound serum concentration in healthy human (6 volunteers) at 1 g, po administered as single dose measured after 1.5 hrs by enzyme multiple immunotechnique; conditions: in vivo
[26] = Cmax in healthy human (6 volunteers) at 1 g, po administered as single dose by gas liquid chromatography; set-up: dose 1 g, route oral; conditions: in vivo
[27] = Fraction unbound in healthy human (6 volunteers) serum at 1 g, po administered as single dose measured after 10 hrs
[28] = Fraction unbound in healthy human (6 volunteers) serum at 1 g, po administered as single dose measured after 0.66 hrs
Serum [29] = test: Unbound serum concentration in healthy human (6 volunteers) at 1 g, po administered as single dose measured after 12 hrs by enzyme multiple immunotechnique; conditions: in vivo
[30] = Total serum concentration in healthy human (6 volunteers) at 1 g, po administered as single dose measured after 48 hrs by gas liquid chromatography; conditions: read-out: Drug uptake
[31] = Total serum concentration in healthy human (6 volunteers) at 1 g, po administered as single dose measured after 3 hrs by gas liquid chromatography; conditions: read-out: Drug uptake
[32] = Fraction unbound in healthy human (6 volunteers) serum at 1 g, po administered as single dose measured after 14 hrs
[33] = Total serum concentration in healthy human (6 volunteers) at 1 g, po administered as single dose measured after 39 hrs by gas liquid chromatography; conditions: read-out: Drug uptake
[34] = Fraction unbound in healthy human (6 volunteers) serum at 1 g, po administered as single dose measured after 3 hrs
[35] = Tmax in healthy human (6 volunteers) at 1 g, po administered as single dose by gas liquid chromatography; conditions: in vivo
[36] = Total serum concentration in healthy human (6 volunteers) at 1 g, po administered as single dose measured after 10 hrs by gas liquid chromatography; conditions: read-out: Drug uptake
[37] = Total serum concentration in healthy human (6 volunteers) at 1 g, po administered as single dose measured after 4 hrs by gas liquid chromatography; conditions: read-out: Drug uptake
[38] = Fraction unbound in healthy human (6 volunteers) serum at 1 g, po administered as single dose measured after 0.33 hrs
[39] = Fraction unbound in healthy human (6 volunteers) serum at 1 g, po administered as single dose measured after 1 hr
Serum [40] = test: Unbound serum concentration in healthy human (6 volunteers) at 1 g, po administered as single dose measured after 39 hrs by enzyme multiple immunotechnique; conditions: in vivo
Serum [41] = test: Unbound serum concentration in healthy human (6 volunteers) at 1 g, po administered as single dose measured after 0.66 hrs by enzyme multiple immunotechnique; conditions: in vivo
Serum [42] = test: Unbound serum concentration in healthy human (6 volunteers) at 1 g, po administered as single dose measured after 0.33 hrs by enzyme multiple immunotechnique; conditions: in vivo
[43] = Total serum concentration in healthy human (6 volunteers) at 1 g, po administered as single dose measured after 24 hrs by gas liquid chromatography; conditions: read-out: Drug uptake
[44] = Fraction unbound in healthy human (6 volunteers) serum at 1 g, po administered as single dose
[45] = Terminal half life in healthy human (6 volunteers) at 1 g, po administered as single dose by gas liquid chromatography; conditions: in vivo, read-out: beta t1/2 (converted)
Serum [46] = test: Unbound serum concentration in healthy human (6 volunteers) at 1 g, po administered as single dose measured after 3 hrs by enzyme multiple immunotechnique; conditions: in vivo
[47] = Fraction unbound in healthy human (6 volunteers) serum at 1 g, po administered as single dose measured after 4 hrs
[48] = Fraction unbound in healthy human (6 volunteers) serum at 1 g, po administered as single dose measured after 12 hrs
[49] = Total serum concentration in healthy human (6 volunteers) at 1 g, po administered as single dose measured after 5 hrs by gas liquid chromatography; conditions: read-out: Drug uptake
[50] = Total serum concentration in healthy human (6 volunteers) at 1 g, po administered as single dose measured after 0.33 hrs by gas liquid chromatography; conditions: read-out: Drug uptake
[51] = Total serum concentration in healthy human (6 volunteers) at 1 g, po administered as single dose measured after 0.66 hrs by gas liquid chromatography; conditions: read-out: Drug uptake
[52] = Fraction unbound in healthy human (6 volunteers) serum at 1 g, po administered as single dose measured after 8 hrs
[53] = Fraction unbound in healthy human (6 volunteers) serum at 1 g, po administered as single dose measured after 5 hrs
[54] = Fraction unbound in healthy human (6 volunteers) serum at 1 g, po administered as single dose measured after 6 hrs

## CCCC(CCC)C(=O)[O-].[Na+] [VALPROATE SODIUM]
Serum [1]
  Drug uptake(free): 5.3 µg/mL
Serum [2]
  Drug uptake(free): 0 µg/mL
Serum [3]
  Drug uptake(free): 4.6 µg/mL
Serum [4]
  Drug uptake(free): 3.9 µg/mL
[5]
  concentration at 8 h: 66.9 µg/mL
[6]
  concentration at 6 h: 85.9 µg/mL
[7]
  fraction unbound: 0.041
[8]
  AUC: 2120 µg·h/mL
[9]
  fraction unbound at 1.5 h: 0.042
Serum [10]
  Drug uptake(free): 6.1 µg/mL
[11]
  Drug metabolism: 176.6 mg
Serum [12]
  Drug uptake(free): 1.2 µg/mL
[13]
  fraction unbound at 2 h: 0.058
Serum [14]
  Drug uptake(free): 0 µg/mL
Serum [15]
  Drug uptake(free): 0 µg/mL
[16]
  concentration at 1.5 h: 103 µg/mL
[17]
  concentration at 1 h: 105 µg/mL
Serum [18]
  Drug uptake(free): 3.6 µg/mL
Serum [19]
  Drug uptake(free): 3.8 µg/mL
Homo sapiens
  fAUC: 84.2 µg·h/mL
[20]
  concentration at 12 h: 54.1 µg/mL
[21]
  concentration at 2 h: 105 µg/mL
Serum [22]
  Drug uptake(free): 2.7 µg/mL
[23]
  concentration at 14 h: 47.5 µg/mL
[24]
  concentration at 30 h: 23.4 µg/mL
Serum [25]
  Drug uptake(free): 4.3 µg/mL
[26]
  Cmax: 108 µg/mL
[27]
  fraction unbound at 10 h: 0.046
[28]
  fraction unbound at 0.66 h: 0.052
Serum [29]
  Drug uptake(free): 1.9 µg/mL
[30]
  concentration at 48 h: 10.6 µg/mL
[31]
  concentration at 3 h: 96.3 µg/mL
[32]
  fraction unbound at 14 h: 0.026
[33]
  concentration at 39 h: 15.3 µg/mL
[34]
  fraction unbound at 3 h: 0.049
[35]
  Tmax: 2 h
[36]
  concentration at 10 h: 61.4 µg/mL
[37]
  concentration at 4 h: 92.9 µg/mL
[38]
  fraction unbound at 0.33 h: 0.04
[39]
  fraction unbound at 1 h: 0.051
Serum [40]
  Drug uptake(free): 0 µg/mL
Serum [41]
  Drug uptake(free): 4.9 µg/mL
Serum [42]
  Drug uptake(free): 2.1 µg/mL
[43]
  concentration at 24 h: 33.3 µg/mL
[44]
  fraction unbound: 0.049
[45]
  half-life: 14.9 h
Serum [46]
  Drug uptake(free): 4.7 µg/mL
[47]
  fraction unbound at 4 h: 0.049
[48]
  fraction unbound at 12 h: 0.037
[49]
  concentration at 5 h: 88.6 µg/mL
[50]
  concentration at 0.33 h: 52.3 µg/mL
[51]
  concentration at 0.66 h: 95.2 µg/mL
[52]
  fraction unbound at 8 h: 0.059
[53]
  fraction unbound at 5 h: 0.04
[54]
  fraction unbound at 6 h: 0.044
